Test results taken from PMC4257840 (Journal of Medicinal Chemistry, 2014).

What was measured:
Human cathepsin E = molecular target: T1, Human cathepsin E (Homo sapiens, UniProt P14091); assay: Protease counter-screening: Cathepsin E; format: biochemical
T1 construct: host or cells: NS0 murine myeloma cell line
Description: (§1) Appendix 7. Protease Counter -Screening
(§2) Protease counter-screeni ng was performed using the methods described below. Initial screening was conducted in duplicate using a single test substance concentration of 10 µ M .
(§3) Additional assays were conducted in replicate for selected pairin gs of test s ubstance and enz yme in order to enable the determination of IC50 values using conventional procedures.
(§4) Determination of K i was made using the Batch K i program (Biokin Ltd, Pullman, WA) to derive values from the Morrison equation: […]
(§5) Where [E ] is the active enz yme concentration, Kiapp is the apparent inhibition const ant, v 0 is the control velocit y in the absence of inhibitors, vb is the background velocity, v is the initial reaction velocit y in the presence of inhibitor, and I is the inhibitor concentration.Thence:
Where [S ] is the substrate concentration and KM is the Michealis constant.
Caspase 1: Activity against human recombinant caspase 1 expressed in E. coli was tested using Ac-YVAD- AMC as the substrate. Test compound or vehicle was pre- incubated with 600 […]
Cathep sin D: Tests were performed using enz ym e purified from human li ver. Test compound or vehicle was pre- incubated with 190 mU/mL enz yme in modified acetate buffer pH 4.0 for 15 min at 37 °C. […]
The amount of MCA-P LG formed was measured spectrofluorimetricall y at 340 nm/400 nm. […]

[1] = molecular target: T2, human recombinant caspase 3 (Homo sapiens, UniProt P42574); assay: Protease counter-screening: Caspase 3; format: biochemical
T2 construct: host or cells: E. coli
T2 sequence (P42574 29-175 limits assumed): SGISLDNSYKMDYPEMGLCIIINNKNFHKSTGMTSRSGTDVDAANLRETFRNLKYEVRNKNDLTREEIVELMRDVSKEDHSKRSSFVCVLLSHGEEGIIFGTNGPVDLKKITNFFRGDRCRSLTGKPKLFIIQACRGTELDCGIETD
T2 sequence (P42574 176-277 limits assumed): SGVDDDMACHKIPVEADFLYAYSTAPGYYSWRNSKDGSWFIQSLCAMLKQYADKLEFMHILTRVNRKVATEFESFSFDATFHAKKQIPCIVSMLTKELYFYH
Description: as §1, §2, §3, §4, §5
Where [S ] is the substrate concentration and KM is the Michealis constant. […]
by addition of 50 µM Ac-DEVD-AMC for another 60 min incubation period. The amount of AMC formed was determined fluorimetricall y (excitation 360 nm/emission 465 nm). […]
by addition of 25 µM Ac-LEH D-A FC for another 60 min incubation period. The amount of amino-4- trifluorometh ylcoumarin (AFC) formed determined fluorimetrically (400nm/ 510nm).
Cathepsin C: Cathepsin C from bovine spleen was used as the source of enz yme. […] T he amount of AMC product formed was read spectrofluorimetrically

[2] = tested on: nonsensitized rats challenged with a natural mixture of HDM allergens; details: i.t. aerosol typically 60-360 min prior to allergen challenge, unsensitised BN rats
[3] = molecular target: T3, angiotensin converting enzyme from rabbit lung (Oryctolagus cuniculus, UniProt P12822); assay: Protease counter-screening: Angiotensin converting enzyme; format: biochemical
T3 construct: rabbit lung; from tissue; host or cells: rabbit lung
T3 sequence (P12822 34-1310): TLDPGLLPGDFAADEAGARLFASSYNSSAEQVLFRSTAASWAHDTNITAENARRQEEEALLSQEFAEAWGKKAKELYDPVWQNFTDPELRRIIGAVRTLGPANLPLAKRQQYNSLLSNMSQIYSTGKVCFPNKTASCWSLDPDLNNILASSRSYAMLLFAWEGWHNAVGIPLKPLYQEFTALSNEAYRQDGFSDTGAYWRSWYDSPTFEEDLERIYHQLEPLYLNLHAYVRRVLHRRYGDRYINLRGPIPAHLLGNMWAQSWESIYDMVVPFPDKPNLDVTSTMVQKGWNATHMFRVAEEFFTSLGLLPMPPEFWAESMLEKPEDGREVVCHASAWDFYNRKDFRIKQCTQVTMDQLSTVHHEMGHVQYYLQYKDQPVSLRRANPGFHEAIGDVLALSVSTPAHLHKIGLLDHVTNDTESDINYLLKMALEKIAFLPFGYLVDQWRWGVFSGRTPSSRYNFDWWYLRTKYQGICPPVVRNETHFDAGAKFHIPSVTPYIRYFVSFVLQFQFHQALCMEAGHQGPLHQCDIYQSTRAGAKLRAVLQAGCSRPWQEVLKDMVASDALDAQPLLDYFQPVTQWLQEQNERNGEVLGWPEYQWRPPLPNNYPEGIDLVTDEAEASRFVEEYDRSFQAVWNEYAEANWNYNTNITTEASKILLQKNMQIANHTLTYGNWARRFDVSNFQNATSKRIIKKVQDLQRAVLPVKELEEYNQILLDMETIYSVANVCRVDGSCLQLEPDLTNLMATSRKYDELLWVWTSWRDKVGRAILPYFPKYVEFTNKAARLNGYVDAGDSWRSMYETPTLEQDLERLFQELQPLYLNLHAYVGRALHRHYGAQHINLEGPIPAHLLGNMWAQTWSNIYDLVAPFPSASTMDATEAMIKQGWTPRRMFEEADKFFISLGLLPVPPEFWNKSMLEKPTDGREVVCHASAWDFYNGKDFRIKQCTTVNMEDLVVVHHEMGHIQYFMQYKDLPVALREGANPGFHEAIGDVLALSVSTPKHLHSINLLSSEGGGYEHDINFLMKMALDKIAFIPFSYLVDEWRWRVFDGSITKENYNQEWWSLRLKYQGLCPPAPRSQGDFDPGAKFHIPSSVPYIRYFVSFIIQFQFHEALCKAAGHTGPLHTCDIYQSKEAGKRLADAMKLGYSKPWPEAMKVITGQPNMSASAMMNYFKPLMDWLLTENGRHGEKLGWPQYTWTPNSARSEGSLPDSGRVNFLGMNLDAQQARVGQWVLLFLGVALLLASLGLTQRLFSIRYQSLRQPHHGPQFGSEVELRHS
Description: as §1, §2, §3, §4
MMP-9: Human recombinant MMP-9 proenz yme ex pressed in mammalian cells was activated with APMA for 60 min at 37 °C. […] The amount of MCA-P LG formed was read spectrofluorimetricall y at 340 nm/400 nm.
ADAM-17/TACE: Human recombinant ADAM-17 expressed in Sf21 insect cells was used as enz yme sour ce. […] T he amount of MCA-P LAQA formed w as read spectro fluorimetricall y at 340 nm/400 nm.
Angiotensin converting enzyme: Test compound or vehicle was pre- incubated in modified HEPES buffer pH 7.5 for 15 min at 25 °C with 31 mU/mL angiotensin converting enz yme from rabbit lung. […] The amount of substrate remaining was read spectrophotometricall y at 340 nm and used to deri ve the extent of reaction and its inhibition. […]

Human liver cathepsin L = molecular target: T4, Human liver cathepsin L (Homo sapiens, UniProt P07711); assay: Protease counter-screening: Cathepsin L; format: biochemical
T4 construct: Human liver cathepsin L was used as the; from tissue; host or cells: human liver
T4 sequence (P07711 114-333): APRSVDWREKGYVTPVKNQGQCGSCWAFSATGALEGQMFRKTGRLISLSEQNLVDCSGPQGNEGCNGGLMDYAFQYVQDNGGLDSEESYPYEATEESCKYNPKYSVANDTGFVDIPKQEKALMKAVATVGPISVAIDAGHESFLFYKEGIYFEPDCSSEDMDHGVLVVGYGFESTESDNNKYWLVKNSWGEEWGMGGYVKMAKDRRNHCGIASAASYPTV

T1 sequence (P14091 54-396): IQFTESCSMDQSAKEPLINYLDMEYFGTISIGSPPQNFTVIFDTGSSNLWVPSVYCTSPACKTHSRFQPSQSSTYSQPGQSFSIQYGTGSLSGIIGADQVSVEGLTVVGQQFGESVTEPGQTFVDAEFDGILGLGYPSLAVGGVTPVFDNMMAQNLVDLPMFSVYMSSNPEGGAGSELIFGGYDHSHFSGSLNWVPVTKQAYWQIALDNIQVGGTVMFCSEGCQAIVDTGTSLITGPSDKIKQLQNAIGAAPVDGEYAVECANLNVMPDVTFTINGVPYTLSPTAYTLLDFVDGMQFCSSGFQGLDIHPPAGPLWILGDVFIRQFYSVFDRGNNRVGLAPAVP

Q: `CC(C)[C@H](NC(=O)[C@H](C)NC(=O)[C@@H](NC(=O)c1ccccc1)C(C)(C)C)C(=O)C(=O)NCc1ccccc1` [Compound 38, N-{(S)-1-[(S)-1-((S)-1-Benzylaminooxalyl-2-methyl-propylcarbamoyl)-ethylcarbamoyl]-2,2-dimethyl-propyl}-benzamide] was tested. Which inhibition at 10 µM (Human cathepsin E) did it give?
A: Its inhibition at 10 µM is 23%.

Q: And the inhibition at 10 µM [1]?
A: The inhibition at 10 µM was 1%.

Q: And the “duration of protection: trend of inhibition of eosinophil recruitment with increasing pre-treatment interval” value [2]?
A: The value was “rise to well-maintained”.

Q: What about the inhibition at 10 µM [3] of the same compound?
A: Its inhibition at 10 µM is 0%.

Q: What about the inhibition at 10 µM (Human liver cathepsin L) of the same compound?
A: Its inhibition at 10 µM is 34%.
